These results are taken from patent US6750228B1, “Aromatic sulfone hydroxamic acid metalloprotease inhibitor” (priority 1997, dated 2004).

Common to all, as to test: biochemical
One assay addresses T1, MMP-13 (Homo sapiens, UniProt P45452).
T1 construct: made in house; host or cells: baculovirus / insect cells
As to conditions: recombinant human MMP-13, MCA peptide substrate 4 μM, pH 7.5, room temperature; read-out: MMP-13 IC50. A digest of the protocol: (§1)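 Assay buffer 100 mM Tris-HCl, 100 mM NaCl, 10 mM CaCl2, pH 7.5. Activated MMP + inhibitor, 5 min RT; then methoxycoumarin peptide substrate, 4 μM final. Readout fluorescence; IC50 calculated.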

A further assay deals with T2, MMP-1 (Homo sapiens, UniProt P03956).
T2 construct: made in house; host or cells: transfected HT-1080 cells (provided by Dr. Harold Welgus, Washington University)
T2 sequence (P03956 100-469): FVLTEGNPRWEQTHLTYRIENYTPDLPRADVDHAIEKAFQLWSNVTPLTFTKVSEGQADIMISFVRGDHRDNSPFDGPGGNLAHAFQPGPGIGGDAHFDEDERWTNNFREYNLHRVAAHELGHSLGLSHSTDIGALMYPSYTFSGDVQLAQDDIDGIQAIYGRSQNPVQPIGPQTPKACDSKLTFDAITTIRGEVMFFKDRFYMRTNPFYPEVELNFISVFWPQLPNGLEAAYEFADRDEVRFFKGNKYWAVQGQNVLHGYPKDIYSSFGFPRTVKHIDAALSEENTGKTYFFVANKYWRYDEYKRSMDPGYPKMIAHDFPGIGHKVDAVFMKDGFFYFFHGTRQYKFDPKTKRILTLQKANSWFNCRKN
To be noted: recombinant human MMP-1, MCA peptide substrate 4 μM, pH 7.5, room temperature; read-out: MMP-1 IC50. A digest of the protocol:
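APMA- or trypsin-activated enzymes were preincubated with inhibitor for 5 min at room temperature, then the fluorogenic substrate MCA-Pro-Leu-Gly-Leu-Dpa-Ala-Arg-NH2 was added to a final 4 μM.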

For another assay, the target named is T3, MMP-2 (Homo sapiens, UniProt P08253).
T3 construct: made in house; provided by Dr. Gregory Goldberg, Washington University
T3 sequence (P08253 110-660): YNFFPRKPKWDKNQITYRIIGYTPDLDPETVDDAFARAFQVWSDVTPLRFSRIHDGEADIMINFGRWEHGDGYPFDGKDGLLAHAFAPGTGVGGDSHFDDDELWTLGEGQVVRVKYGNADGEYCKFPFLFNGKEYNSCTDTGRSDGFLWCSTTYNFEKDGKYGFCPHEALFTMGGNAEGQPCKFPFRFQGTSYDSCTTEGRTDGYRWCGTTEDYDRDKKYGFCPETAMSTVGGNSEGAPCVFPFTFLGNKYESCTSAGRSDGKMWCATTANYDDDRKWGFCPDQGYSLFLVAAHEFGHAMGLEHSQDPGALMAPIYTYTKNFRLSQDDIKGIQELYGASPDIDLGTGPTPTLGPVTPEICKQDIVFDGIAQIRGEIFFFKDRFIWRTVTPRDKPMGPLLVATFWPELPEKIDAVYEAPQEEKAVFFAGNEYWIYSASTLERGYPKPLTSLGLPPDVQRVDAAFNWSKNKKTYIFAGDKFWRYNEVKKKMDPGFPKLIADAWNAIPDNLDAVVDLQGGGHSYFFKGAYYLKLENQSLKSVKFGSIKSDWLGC
To be noted: recombinant human MMP-2, MCA peptide substrate 4 μM, pH 7.5, room temperature; read-out: MMP-2 IC50. An outline of the steps:
as §1

As to `Cc1ccc(C(=O)C2CCN(c3ccc(S(=O)(=O)C4(C(=O)NO)CCOCC4)cc3)CC2)cc1` [Example 652], the IC50 on MMP-13 was 0.4 nM; on MMP-1, over 10000 nM; on MMP-2, 82 nM.
On to `O=C(NO)C1(S(=O)(=O)c2ccc(OC3CCC(OCc4cccc(Cl)c4)C3)cc2)CCOCC1` (stereo not drawn) [Example 669], for which the 50% inhibitory concentration (IC50) was 4.3 nM on MMP-13, over 10000 nM at MMP-1 and 22.7 nM at MMP-2.
For the compound `Cc1ccc([N+](=O)[O-])c(OC2CCN(c3ccc(S(=O)(=O)C4(C(=O)NO)CCOCC4)cc3)CC2)c1` [Example 550], the IC50 on MMP-13 is 20 nM; on MMP-1 it was over 10000 nM; at MMP-2, 2000 nM.
Taken in the same sequence, the figures for `CCCCCC(=O)N1CCN(c2ccc(S(=O)(=O)C3(C(=O)NO)CCOCC3)cc2)CC1` [Example 592] were 57 nM, over 10000 nM and 690 nM.
On to `COCc1ccc(COC2CCN(c3ccc(S(=O)(=O)C4(C(=O)NO)CCOCC4)cc3)CC2)cc1` [Example 522], for which the results for the IC50 on MMP-13, on MMP-1 and at MMP-2 were 2.4 nM, over 10000 nM and 94 nM, respectively.
The corresponding values for `O=C(NO)C1(S(=O)(=O)c2ccc(N3CC[C@@H](COCc4ccc(OC(F)(F)F)cc4)C3)cc2)CCOCC1` [Example 527] are 6700 nM, over 10000 nM and 9000 nM.
As to `COCCN(CCOC)CC(=O)N1CCC(C(=O)NO)(S(=O)(=O)c2ccc(Oc3ccc(C(F)(F)F)cc3)cc2)CC1` [Example 327], the concentration for half-maximal inhibition (IC50) on MMP-13 was 0.9 nM; on MMP-1 it was over 10000 nM; at MMP-2 it was 0.3 nM.
Regarding `O=C(NO)C1(S(=O)(=O)c2ccc(OC3CCC(OCc4ccccc4Cl)C3)cc2)CCOCC1` (stereo not drawn) [Example 665], the 50% inhibitory concentration (IC50) at MMP-13 is 2.3 nM; on MMP-1, over 10000 nM; at MMP-2, 29.2 nM.
Turning to `O=C(NO)C1(S(=O)(=O)c2ccc(N3CCCC(COCc4ccccc4)C3)cc2)CCOCC1` (stereo not drawn) [Example 504], the concentration for half-maximal inhibition (IC50) at MMP-13 is 6.3 nM; on MMP-1, over 10000 nM; at MMP-2, 220 nM.
The corresponding values for “Tetrahydro-4-[[4-(pentaflourooxy)phenyl]sulfonyl]-2H-thiopyran-4-carboxamide [Example 225]” are 180 nM, over 10000 nM and 41.8 nM.
Take `CC1CC(C)CN(C(=O)C2CCN(c3ccc(S(=O)(=O)C4(C(=O)NO)CCN(C(=O)CN(CCCN(C)C)CCCN(C)C)CC4)cc3)CC2)C1` (stereo not drawn) [Example 302]: the 50% inhibitory concentration (IC50) on MMP-13 is 175 nM; on MMP-1, over 10000 nM; at MMP-2 it was over 10000 nM.
On to `O=C(NO)C1(S(=O)(=O)c2ccc(N3CCC(OCc4ccc(COCC5CCCC5)cc4)CC3)cc2)CCOCC1` [Example 605], for which the values for the IC50 on MMP-13, on MMP-1 and on MMP-2 were 10.6 nM, over 10000 nM and 2000 nM, respectively.
Taken in the same sequence, the figures for `O=C(NO)C1(S(=O)(=O)c2ccc(N3CCCN(S(=O)(=O)c4ccccc4)CC3)cc2)CCOCC1` [Example 650] were 14.7 nM, over 10000 nM and 1200 nM.
Taken in the same sequence, the figures for `O=C(NO)C1(S(=O)(=O)c2ccc(N3CCCC(COCc4cccc(C(F)(F)F)c4)C3)cc2)CCOCC1` (stereo not drawn) [Example 507] were 15.8 nM, over 10000 nM and 210 nM.
The corresponding values for `C=Cc1cccc(C(=O)C2CCN(c3ccc(S(=O)(=O)C4(C(=O)NO)CCOCC4)cc3)CC2)c1` [Example 786] are 3.7 nM, over 10000 nM and 700 nM.
Regarding `O=C(NO)C1(S(=O)(=O)c2ccc(N3CCC([S+]([O-])c4ccccc4)CC3)cc2)CCN(C2CC2)CC1` (stereo not drawn) [Example 459], the concentration for half-maximal inhibition (IC50) at MMP-13 is 136 nM; on MMP-1, over 10000 nM; on MMP-2, 3100 nM.
The corresponding values for `CCCCCC(=O)C1CCN(c2ccc(S(=O)(=O)C3(C(=O)NO)CCOCC3)cc2)CC1` [Example 755] are 2.2 nM, over 10000 nM and 20 nM.
With `CCCCc1ccc(OC2CCN(c3ccc(S(=O)(=O)C4(C(=O)NO)CCOCC4)cc3)CC2)cc1` [Example 642], the half-maximal inhibitory concentration (IC50) is 2.2 nM at MMP-13, over 10000 nM on MMP-1 and 1.1 nM at MMP-2.
In the case of `CN(C)CCN(C)C(=O)C1CCN(c2ccc(S(=O)(=O)C3(C(=O)NO)CCOCC3)cc2)CC1` [Example 51], the concentration for half-maximal inhibition (IC50) is 370 nM at MMP-13, over 10000 nM on MMP-1 and 7000 nM at MMP-2.
Turning to `CN(C)Cc1ccc(COC2CCN(c3ccc(S(=O)(=O)C4(C(=O)NO)CCOCC4)cc3)CC2)cc1` [Example 566], the values for the IC50 at MMP-13, on MMP-1 and on MMP-2 were 15.8 nM, over 10000 nM and 57.1 nM, respectively.
For `COCCN1CCC(C(=O)NO)(S(=O)(=O)c2ccc(N3CCC(OCc4ccc(F)c(C(F)(F)F)c4)CC3)cc2)CC1` [Example 446], the values for the IC50 at MMP-13, on MMP-1 and on MMP-2 were 270 nM, over 10000 nM and 7000 nM, respectively.
For the compound `CC(=O)N1CCC(C(=O)NO)(S(=O)(=O)c2ccc(N3CCC(C(=O)Nc4ccccc4)CC3)cc2)CC1` [Example 245, 1-Acetyl-N-hydroxy-4-[[4-[4-[(phenylamino)carbonyl]-1-piperidinyl]phenyl]sulfonyl]-4-piperidinecarboxamide], the IC50 on MMP-13 is 20 nM; at MMP-1 it was over 10000 nM; at MMP-2, 800 nM.
On to `CCOc1cc(N2CCC(C(=O)NO)(S(=O)(=O)c3ccc(Oc4ccc(OC(F)(F)F)cc4)cc3)CC2)ncn1` [Example 411], for which the IC50 at MMP-13 was 0.2 nM; at MMP-1, over 10000 nM; on MMP-2, under 0.1 nM.
With `O=C(NO)C1(S(=O)(=O)c2ccc(N3CC4CC3CN4Cc3ccccc3)cc2)CCOCC1` (stereo not drawn) [Example 493], the IC50 on MMP-13, on MMP-1 and on MMP-2 was over 10000 nM throughout.
As for `CN(C)c1cccc(C(=O)C2CCN(c3ccc(S(=O)(=O)C4(C(=O)NO)CCOCC4)cc3)CC2)c1` [Example 790], the results for the 50% inhibitory concentration (IC50) on MMP-13, on MMP-1 and on MMP-2 were 4.5 nM, over 10000 nM and 700 nM, respectively.
Taken in the same sequence, the figures for `CS(=O)(=O)N1CCC(C(=O)NO)(S(=O)(=O)c2ccc(Oc3ccc(OC(F)(F)F)cc3)cc2)CC1` [Example 273, N-Hydroxy-1-(methylsulfonyl)-4-[[4-[4-sulfonyl]-(trifluoromethoxy)phenoxy]phenyl]-4-piperidinecarboxamide] were 0.3 nM, over 10000 nM and 0.1 nM.
Turning to `O=C(CN1CCNCC1)N1CCC(C(=O)NO)(S(=O)(=O)c2ccc(Oc3ccc(C(F)(F)F)cc3)cc2)CC1` [Example 328], the IC50 was 0.35 nM at MMP-13, over 10000 nM at MMP-1 and 0.4 nM at MMP-2.
For `CCCCCN(C)C1CCN(c2ccc(S(=O)(=O)C3(C(=O)NO)CCOCC3)cc2)CC1` [Example 597], the half-inhibitory concentration (IC50) on MMP-13 was 670 nM; at MMP-1, over 10000 nM; at MMP-2, 700 nM.
As for `O=C(NO)C1(S(=O)(=O)c2ccc(N3CCCCC3CCOCc3ccccc3)cc2)CCOCC1` (stereo not drawn) [Example 509], the results for the IC50 on MMP-13, at MMP-1 and at MMP-2 were 520 nM, over 10000 nM and over 10000 nM, respectively.
As to `O=C(NO)C1(S(=O)(=O)c2ccc(Oc3ccc(C(F)(F)F)cc3)cc2)CCN(c2ncccc2C(F)(F)F)CC1` [Example 375], the figures for the IC50 on MMP-13, at MMP-1 and on MMP-2 were 16.9 nM, over 10000 nM and 15.6 nM, respectively.
Turning to `CC1CC(C)CN(C(=O)C2CCN(c3ccc(S(=O)(=O)C4(C(=O)NO)CCN(C(=O)CNCCCO)CC4)cc3)CC2)C1` (stereo not drawn) [Example 280], the 50% inhibitory concentration (IC50) was 90 nM on MMP-13, over 10000 nM at MMP-1 and over 10000 nM on MMP-2.
On to `O=C(NO)C1(S(=O)(=O)c2ccc(N3CCCCCC3)cc2)CCOCC1` [Example 212], for which the figures for the half-inhibitory concentration (IC50) on MMP-13, on MMP-1 and at MMP-2 were 160 nM, over 10000 nM and 240 nM, respectively.
